In US20250098679A1, “HERBICIDAL PYRIDONE DERIVATIVES” (SYNGENTA CROP PROTECTION AG, priority 2021, published 2025):

What was measured:
Type in all cases: in vivo
Conditions in all cases: evaluated after 13 days
[1] = system: Echinochloa crus-galli (ECHCG); assay: Post-emergence Test, Echinochloa crus-galli (ECHCG); parameters: key to percentage damage caused to the plant, ECHCG (five-point scale): 5=81-100%, 4=61-80%, 3=41-60%, 2=21-40%, 1=0-20% damage
Procedure: (§1) Seeds of a variety of test species are sown in standard soil in pots (Setaria faberi (SETFA), Echinochloa crus-galli (ECHCG), Zea mays (ZEAMX), Ipomoea hederacea (IPOHE), Amaranthus palmeri (AMAPA), Amaranthus retoflexus (AMARE)). After 8 days cultivation under controlled conditions in a glasshouse (at 24° C./16° C., day/night; 14 hours light; 65% humidity), the plants are sprayed with an aqueous spray solution derived from the formulation of the technical active ingredient in acetone/water (50:50) solution containing 0.5% Tween 20 (polyoxyethelyene sorbitan monolaurate, CAS RN 9005-64-5). Compounds are applied at 1000 g/ha unless otherwise stated. The test plants are then grown in a glasshouse under controlled conditions in a glasshouse (at 24° C./16° C., day/night; 14 hours light; 65% humidity) and watered twice daily. After 13 days the test is evaluated for the percentage damage caused to the plant. The biological activities are shown in the following table on a five-point scale (5=81-100%; 4=61-80%; 3=41-60%; 2=21-40%; 1=0-20%; -=not tested).

[2] = system: Amaranthus palmeri (AMAPA); assay: Post-emergence Test, Amaranthus palmeri (AMAPA); parameters: key: 5=81-100%, 4=61-80%, 3=41-60%, 2=21-40%, 1=0-20% damage
Procedure: as §1

[3] = system: Setaria faberi (SETFA); assay: Post-emergence Test, Setaria faberi (SETFA); parameters: key to percentage damage caused to the plant, SETFA (five-point scale): 5=81-100%, 4=61-80%, 3=41-60%, 2=21-40%, 1=0-20% damage
Procedure: as §1

[4] = system: Ipomoea hederacea (IPOHE); assay: Post-emergence Test, Ipomoea hederacea (IPOHE); parameters: key to percentage damage caused to the plant, IPOHE (five-point scale): 5=81-100%, 4=61-80%, 3=41-60%, 2=21-40%, 1=0-20% damage
Procedure: as §1

[5] = system: Zea mays (ZEAMX); assay: Post-emergence Test, Zea mays (ZEAMX); parameters: key to percentage damage caused to the plant, ZEAMX (five-point scale): 5=81-100%, 4=61-80%, 3=41-60%, 2=21-40%, 1=0-20% damage
Procedure: as §1

[6] = system: Amaranthus retoflexus (AMARE); assay: Post-emergence Test, Amaranthus retoflexus (AMARE); parameters: key to percentage damage caused to the plant, AMARE (five-point scale): 5=81-100%, 4=61-80%, 3=41-60%, 2=21-40%, 1=0-20% damage
Procedure: as §1

SMILES | percentage damage caused to the plant, ECHCG (five-point scale) ([1]; 1000 g/ha) | percentage damage caused to the plant, AMAPA (five-point scale) ([2]; 1000 g/ha) | percentage damage caused to the plant, SETFA (five-point scale) ([3]; 1000 g/ha) | percentage damage caused to the plant, IPOHE (five-point scale) ([4]; 1000 g/ha) | percentage damage caused to the plant, ZEAMX (five-point scale) ([5]; 1000 g/ha) | percentage damage caused to the plant, AMARE (five-point scale) ([6]; 1000 g/ha) | percentage damage caused to the plant, ECHCG (five-point scale) ([1]; 250 g/Ha) | percentage damage caused to the plant, AMAPA (five-point scale) ([2]; 250 g/Ha) | percentage damage caused to the plant, IPOHE (five-point scale) ([4]; 250 g/Ha) | percentage damage caused to the plant, ZEAMX (five-point scale) ([5]; 250 g/Ha) | percentage damage caused to the plant, AMARE (five-point scale) ([6]; 250 g/Ha) | further results
CCn1c(Cn2ccc(C(F)(F)F)n2)cc(=O)c(C(=O)O)c1-c1ccc(Cl)c(S(C)(=O)=O)c1 [Compound 116, 2-(4-chloro-3-methylsulfonyl-phenyl)-1-ethyl-4-oxo-6-[[3-(trifluoromethyl)pyrazol-1-yl]methyl]pyridine-3-carboxylic acid] | 1 (1=0-20%) | 1 (1=0-20%) | 1 (1=0-20%) | 1 (1=0-20%) | 1 (1=0-20%) | 1 (1=0-20%) | – | – | – | – | – | –
CCn1c(Cn2nc(C(F)(F)F)cc2C2CC2)cc(=O)c(C(=O)O)c1-c1ccc(Cl)c(Cl)c1 [Compound 184, 6-[[5-cyclopropyl-3-(trifluoromethyl)pyrazol-1-yl]methyl]-2-(3,4-dichlorophenyl)-1-ethyl-4-oxo-pyridine-3-carboxylic acid] | – | 3 (3=41-60%) | 4 (4=61-80%) | 4 (4=61-80%) | 3 (3=41-60%) | 3 (3=41-60%) | 3 (3=41-60%) | 1 (1=0-20%) | 1 (1=0-20%) | 1 (1=0-20%) | 1 (1=0-20%) | –
CCn1c(Cn2nc(C(C)(C)C)cc2C(F)(F)F)cc(=O)c(C(=O)O)c1-c1ccc(Cl)c(Cl)c1 [Compound 181, 6-[[3-tert-butyl-5-(trifluoromethyl)pyrazol-1-yl]methyl]-2-(3,4-dichlorophenyl)-1-ethyl-4-oxo-pyridine-3-carboxylic acid] | – | 1 (1=0-20%) | 0 | 1 (1=0-20%) | 0 | 1 (1=0-20%) | 1 (1=0-20%) | 0 | 0 | 0 | 0 | –
CCn1c(Cn2cnc(Cl)c2)cc(=O)c(C(=O)O)c1-c1ccc(Cl)c(Cl)c1 [Compound 74, 6-[(4-chloroimidazol-1-yl)methyl]-2-(3,4-dichlorophenyl)-1-ethyl-4-oxo-pyridine-3-carboxylic acid] | 0 | 0 | 0 | 0 | 1 (1=0-20%) | 0 | – | – | – | – | – | –
CCc1ncnn1Cc1cc(=O)c(C(=O)O)c(-c2ccc(Cl)c(Cl)c2)n1CC [Compound 70, 2-(3,4-dichlorophenyl)-1-ethyl-6-[(5-ethyl-1,2,4-triazol-1-yl)methyl]-4-oxo-pyridine-3-carboxylic acid] | 1 (1=0-20%) | 1 (1=0-20%) | 2 (2=21-40%) | 1 (1=0-20%) | 0 | 1 (1=0-20%) | – | – | – | – | – | –
CCn1c(Cn2ncc([N+](=O)[O-])c2C)cc(=O)c(C(=O)O)c1-c1ccc(Cl)c(Cl)c1 [Compound 69, 2-(3,4-dichlorophenyl)-1-ethyl-6-[(5-methyl-4-nitro-pyrazol-1-yl)methyl]-4-oxo-pyridine-3-carboxylic acid] | 1 (1=0-20%) | 1 (1=0-20%) | 3 (3=41-60%) | 1 (1=0-20%) | 2 (2=21-40%) | 1 (1=0-20%) | – | – | – | – | – | –
CCn1c(Cn2cnc(C(F)(F)F)c2)cc(=O)c(C(=O)O)c1-c1ccc(Cl)c(Cl)c1 [Compound 10, 2-(3,4-dichlorophenyl)-1-ethyl-4-oxo-6-[[4-(trifluoromethyl)imidazol-1-yl]methyl]pyridine-3-carboxylic acid] | 0 | 0 | 0 | 1 (1=0-20%) | 1 (1=0-20%) | 0 | – | – | – | – | – | –
CCOC(=O)c1c(-c2ccc(Cl)c(Cl)c2)n(CC)c(Cn2ccc(C(F)(F)F)n2)c(Br)c1=O [Compound 23, ethyl 5-bromo-2-(3,4-dichlorophenyl)-1-ethyl-4-oxo-6-[[3-(trifluoromethyl)pyrazol-1-yl]methyl]pyridine-3-carboxylate] | 2 (2=21-40%) | 2 (2=21-40%) | 2 (2=21-40%) | 2 (2=21-40%) | 1 (1=0-20%) | 1 (1=0-20%) | – | – | – | – | – | –
CCn1c(Cn2ccc(NC(C)=O)n2)cc(=O)c(C(=O)O)c1-c1ccc(Cl)c(Cl)c1 [Compound 154, 6-[(3-acetamidopyrazol-1-yl)methyl]-2-(3,4-dichlorophenyl)-1-ethyl-4-oxo-pyridine-3-carboxylic acid] | 0 | 0 | 0 | 0 | 1 (1=0-20%) | 0 | 0 | 0 | 0 | 1 (1=0-20%) | 0 | percentage damage caused to the plant, SETFA (five-point scale) ([3]; 250 g/Ha): 0
CCn1c(Cn2ncc3ccccc32)cc(=O)c(C(=O)O)c1-c1ccc(Cl)c(Cl)c1 [Compound 105, 2-(3,4-dichlorophenyl)-1-ethyl-6-[indazol-1-ylmethyl)-4-oxo-pyridine-3-carboxylic acid] | 3 (3=41-60%) | 2 (2=21-40%) | 2 (2=21-40%) | 4 (4=61-80%) | 1 (1=0-20%) | 2 (2=21-40%) | 3 (3=41-60%) | 0 | 0 | 0 | 0 | percentage damage caused to the plant, SETFA (five-point scale) ([3]; 250 g/Ha): 0
CCn1c(Cn2ccc(-c3ccc(C)cc3)n2)cc(=O)c(C(=O)O)c1-c1ccc(Cl)c(Cl)c1 [Compound 196, 2-(3,4-dichlorophenyl)-1-ethyl-4-oxo-6-[[3-(p-tolyl)pyrazol-1-yl]methyl]pyridine-3-carboxylic acid] | – | – | – | – | – | – | – | – | – | – | – | Post-emergence Test ECHCG, percentage damage caused to the plant (five-point scale) ([1]; 250 g/Ha (*)): 1 (1=0-20%); Post-emergence Test AMAPA, percentage damage caused to the plant (five-point scale) ([2]; 250 g/Ha (*)): 0; Post-emergence Test AMAPA, percentage damage caused to the plant (five-point scale) ([2]; 1000 g/ha): 0; Post-emergence Test SETFA, percentage damage caused to the plant (five-point scale) ([3]; 1000 g/ha): 0; Post-emergence Test IPOHE, percentage damage caused to the plant (five-point scale) ([4]; 250 g/Ha (*)): 0; Post-emergence Test IPOHE, percentage damage caused to the plant (five-point scale) ([4]; 1000 g/ha): 0; Post-emergence Test ZEAMX, percentage damage caused to the plant (five-point scale) ([5]; 250 g/Ha (*)): 0; Post-emergence Test ZEAMX, percentage damage caused to the plant (five-point scale) ([5]; 1000 g/ha): 1 (1=0-20%); Post-emergence Test AMARE, percentage damage caused to the plant (five-point scale) ([6]; 250 g/Ha (*)): 0; Post-emergence Test AMARE, percentage damage caused to the plant (five-point scale) ([6]; 1000 g/ha): 0
